This note sets out measurements from patent US9139567B2, “Arylpyrazole ethers as inhibitors of leukotriene A4 hydrolase” (Boehringer Ingelheim International GmbH, priority 2011, dated 2015).

pIC50: −log10 of the molar value.

In one assay the target is T1, human LTA4 hydrolase (Homo sapiens, UniProt P09960).
T1 sequence (P09960 1-611): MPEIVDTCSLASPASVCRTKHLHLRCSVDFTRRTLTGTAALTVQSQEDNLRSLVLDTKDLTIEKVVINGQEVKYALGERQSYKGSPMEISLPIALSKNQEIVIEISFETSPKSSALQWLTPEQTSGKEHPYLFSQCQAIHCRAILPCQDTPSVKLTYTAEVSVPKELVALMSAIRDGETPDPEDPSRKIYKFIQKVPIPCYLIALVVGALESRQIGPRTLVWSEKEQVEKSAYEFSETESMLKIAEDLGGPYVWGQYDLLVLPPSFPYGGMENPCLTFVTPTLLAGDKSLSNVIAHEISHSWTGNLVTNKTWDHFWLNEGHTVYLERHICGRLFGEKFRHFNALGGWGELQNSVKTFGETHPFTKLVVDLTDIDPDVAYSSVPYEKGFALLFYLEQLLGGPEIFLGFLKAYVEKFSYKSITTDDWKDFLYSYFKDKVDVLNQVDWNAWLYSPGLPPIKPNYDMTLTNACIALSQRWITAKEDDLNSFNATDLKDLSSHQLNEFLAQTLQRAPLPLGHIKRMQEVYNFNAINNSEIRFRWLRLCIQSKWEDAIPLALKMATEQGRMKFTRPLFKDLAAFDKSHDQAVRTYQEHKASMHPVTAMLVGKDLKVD
The assay can be described thus: LTA4H enzyme assay (cleavage of Arg-AMC, fluorescence). Conditions: LTA4H enzyme 1 nM, Arg-AMC substrate 50 μM, room temperature 1 h. Format: biochemical. In a few lines: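 Recombinant human enzyme (1 nM final) was incubated with Arg-AMC substrate (50 μM final) and compound for 1 h at room temperature in 50 mM Tris-HCl pH 7.5, 100 mM KCl, 0.5% BSA. Aminomethylcoumarin release was detected by fluorescence at 380 nm excitation/460 nm emission.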

Assay [1] deals with LTB4 production in human whole blood. The assay can be described thus: LTB4 production inhibition assay in human whole blood (calcimycin-stimulated). Format: cell-based. Conditions: heparinized human whole blood, 15 min 37° C., calcimycin 20 μM 30 min, plasma LTB4 by HTRF. In a few lines:
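Heparinized human whole blood preincubated with compound 15 min at 37° C, then stimulated with calcimycin (20 μM final) for 30 min at 37° C. Plasma LTB4 measured by antibody-based homogeneous time-resolved fluorescence.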
On the technique in general: TR-FRET usually uses a lanthanide donor and a delayed reading to cut background.

One may read the pIC50 as −log10 of the IC50, conventionally taken in molar units. For `c1cc(-c2ccc(Oc3ccc(O[C@H]4CCOC4)cc3)cc2)[nH]n1` [Example 90, 5-(4-{4-[(3S)-tetrahydrofuran-3-yloxy]phenoxy}phenyl)-1H-pyrazole], the pIC50 is 8.62 against human LTA4 hydrolase and 6.11 in assay [1].

On to `c1cc(-c2ccc(Oc3ccc(OCC4CCCCO4)cc3)cc2)[nH]n1` (stereo not drawn) [Example 91, 5-{4-[4-(tetrahydro-2H-pyran-2-ylmethoxy)phenoxy]phenyl}-1H-pyrazole], for which the negative-log IC50 (pIC50) is 7.97 at human LTA4 hydrolase and ≤ 5.30 in assay [1].

In the case of `c1cc(-c2ccc(Oc3ccc(OCC4CCOC4)cc3)cc2)[nH]n1` (stereo not drawn) [Example 92, 5-{4-[4-(tetrahydrofuran-3-ylmethoxy)phenoxy]phenyl}-1H-pyrazole], the negative logarithm of the IC50 (pIC50) on human LTA4 hydrolase was 8.48; in assay [1], 5.92.

Regarding `c1cc(-c2ccc(Oc3ccc(OCCC4CCCCO4)cc3)cc2)[nH]n1` (stereo not drawn) [Example 93, 5-(4-{4-[2-(tetrahydro-2H-pyran-2-yl)ethoxy]phenoxy]phenyl)-1H-pyrazole], the pIC50 is 7.57 against human LTA4 hydrolase and 5.34 in assay [1].

As to `c1cc(-c2ccc(Oc3ccc(OC4CCCOC4)cc3)cc2)[nH]n1` (stereo not drawn) [Example 94, 5-{4-[4-(tetrahydro-2H-pyran-3-yloxy)phenoxy]phenyl}-1H-pyrazole], the negative logarithm of the IC50 (pIC50) against human LTA4 hydrolase was 7.85; in assay [1] it was 5.70.

With `O=C1CC[C@@H](Oc2ccc(Oc3ccc(-c4ccn[nH]4)nc3)cc2)CN1` [Example 95, (5R)-5-(4-{[6-(1H-pyrazol-5-yl)pyridin-3-yl]oxy}phenoxy)piperidin-2-one], the negative-log IC50 (pIC50) at human LTA4 hydrolase was 8.80; in assay [1], 6.44.
